Reference: ChEMBL document CHEMBL6083219, “Rationally designed febuxostat-based hydroxamic acid and its pH-Responsive nanoformulation elicits anti-tumor activity” (Eur J Med Chem, 2024)
Active and inactive are the calls of the source. The calls are words filed in the database; no cut-off is given here.

Columns and labels:
HL-60 [1] = format: functional, cell-based; settings: Homo sapiens, HL-60, 48 h
NCI-H1975 = format: functional, cell-based; settings: Homo sapiens, NCI-H1975, 48 h
[2] = target: Xanthine dehydrogenase/oxidase (Bos taurus, UniProt P80457); assay: Inhibition of bovine milk xanthine oxidase
MDA-MB-231 = assay: cells; settings: Homo sapiens, MDA-MB-231, 48 h
Description: Cytotoxicity against human MDA-MB-231 cells incubated for 48 hrs by MTT assay

Rattus norvegicus [3] = assay: Anti-hyperuricemic activity against potassium oxonate-induced hyperuricemia Wistar rat model assessed as decrease in blood urea level at 10 mg/kg measured after 14 days; format: functional, organism-based; settings: time 14.0 day
Rattus norvegicus [4] = assay: Anti-hyperuricemic activity against potassium oxonate-induced hyperuricemia Wistar rat model assessed as decrease in serum creatinine level at 10 mg/kg measured after 14 days; format: functional, organism-based; settings: time 14.0 day
Rattus norvegicus [5] = assay: Anti-hyperuricemic activity against potassium oxonate-induced hyperuricemia Wistar rat model assessed as decrease in serum uric acid level at 10 mg/kg measured after 14 days; format: functional, organism-based; settings: time 14.0 day
HL-60 [6] = assay: Downregulation of mTOR expression level in human HL-60 cells at 0.5 to 2 uM by Western blotting analysis; format: functional, cell-based; settings: dose 0.5-2 µM

Sequence of Xanthine dehydrogenase/oxidase (P80457 whole entry): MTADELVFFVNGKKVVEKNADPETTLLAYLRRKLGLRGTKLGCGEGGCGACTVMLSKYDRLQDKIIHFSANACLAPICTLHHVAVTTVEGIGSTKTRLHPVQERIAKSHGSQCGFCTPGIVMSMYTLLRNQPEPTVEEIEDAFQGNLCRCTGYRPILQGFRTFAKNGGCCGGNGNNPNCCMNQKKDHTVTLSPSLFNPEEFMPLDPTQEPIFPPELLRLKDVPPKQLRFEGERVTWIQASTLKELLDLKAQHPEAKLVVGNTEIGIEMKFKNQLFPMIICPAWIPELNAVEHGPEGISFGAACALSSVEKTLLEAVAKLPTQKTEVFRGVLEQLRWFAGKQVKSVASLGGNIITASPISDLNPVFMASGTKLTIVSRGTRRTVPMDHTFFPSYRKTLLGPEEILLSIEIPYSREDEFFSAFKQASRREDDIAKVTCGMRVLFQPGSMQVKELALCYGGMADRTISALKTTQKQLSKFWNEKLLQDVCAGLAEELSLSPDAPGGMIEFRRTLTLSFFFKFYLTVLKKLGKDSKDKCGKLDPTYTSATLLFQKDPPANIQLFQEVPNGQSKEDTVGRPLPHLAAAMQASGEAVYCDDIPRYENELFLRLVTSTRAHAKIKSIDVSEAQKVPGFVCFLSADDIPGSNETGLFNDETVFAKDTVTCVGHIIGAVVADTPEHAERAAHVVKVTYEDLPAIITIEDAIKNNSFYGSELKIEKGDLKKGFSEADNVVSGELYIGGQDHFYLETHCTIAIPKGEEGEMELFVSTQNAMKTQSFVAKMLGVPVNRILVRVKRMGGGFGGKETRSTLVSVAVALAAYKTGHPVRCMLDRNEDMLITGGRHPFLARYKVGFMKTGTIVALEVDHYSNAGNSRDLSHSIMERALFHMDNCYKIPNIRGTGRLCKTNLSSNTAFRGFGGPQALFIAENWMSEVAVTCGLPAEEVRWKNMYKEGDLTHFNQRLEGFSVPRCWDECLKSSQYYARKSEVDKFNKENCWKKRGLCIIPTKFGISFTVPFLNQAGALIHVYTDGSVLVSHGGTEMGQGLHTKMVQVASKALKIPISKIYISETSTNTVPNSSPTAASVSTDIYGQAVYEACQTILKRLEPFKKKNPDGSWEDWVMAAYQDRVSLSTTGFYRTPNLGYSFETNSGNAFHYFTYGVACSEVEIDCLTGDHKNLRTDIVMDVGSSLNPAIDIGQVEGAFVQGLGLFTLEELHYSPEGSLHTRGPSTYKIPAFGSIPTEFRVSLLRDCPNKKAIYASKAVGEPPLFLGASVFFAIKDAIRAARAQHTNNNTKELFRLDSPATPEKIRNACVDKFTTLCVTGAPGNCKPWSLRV

| SMILES | IC50 (HL-60 [1]) | IC50 (NCI-H1975) | IC50 [2] | IC50 (MDA-MB-231) | Activity (Rattus norvegicus [3]) | Activity (Rattus norvegicus [4]) | Activity (Rattus norvegicus [5]) | Activity (HL-60 [6]) |
| --- | --- | --- | --- | --- | --- | --- | --- | --- |
| Cc1nc(-c2ccc(OCC(C)C)c(C#N)c2)sc1C(=O)Nc1ccccc1N | 1260 nM | > 50 µM | 76 nM | > 50 µM | – | – | – | – |
| Cc1nc(-c2ccc(OCC(C)C)c(C#N)c2)sc1C(=O)NCc1ccc(NC(=O)CCCCCCCC(=O)Nc2ccccc2N)cc1 | 1640 nM | 11.2 µM | > 2000 nM | 3.81 µM | – | – | – | – |
| Cc1nc(-c2ccc(OCC(C)C)c(C#N)c2)sc1C(=O)NCc1ccc(NC(=O)CCCCCCCCC(=O)NO)cc1 | 3040 nM | 8.61 µM | > 2000 nM | > 50 µM | – | – | – | – |
| Cc1nc(-c2ccc(OCC(C)C)c(C#N)c2)sc1C(=O)NCc1ccc(C(=O)NCCCCCCC(=O)Nc2ccccc2N)cc1 | 696 nM | > 50 µM | > 2000 nM | > 50 µM | – | – | – | – |
| Cc1nc(-c2ccc(OCC(C)C)c(C#N)c2)sc1C(=O)NCc1ccc(NC(=O)CCCCCC(=O)Nc2ccccc2N)cc1 | 11800 nM | 28.3 µM | > 2000 nM | 19.6 µM | – | – | – | – |
| Cc1nc(-c2ccc(OCC(C)C)c(C#N)c2)sc1C(=O)NCc1ccc(NC(=O)CCCCCCCCC(=O)Nc2ccccc2N)cc1 | 4260 nM | 28.8 µM | > 2000 nM | 3.38 µM | – | – | – | – |
| Cc1nc(-c2ccc(OCC(C)C)c(C#N)c2)sc1C(=O)O [FEBUXOSTAT] | > 100000 nM | > 100 µM | – | > 100 µM | Active | Active | Active | – |
| O=C(CCCCCCC(=O)Nc1ccccc1)NO | – | – | – | – | – | – | – | Active |
| Cc1nc(-c2ccc(OCC(C)C)c(C#N)c2)sc1C(=O)NCc1ccc(C(=O)Nc2ccccc2N)cc1 | 1010 nM | 18.3 µM | > 2000 nM | 9.63 µM | – | – | – | – |
| Cc1nc(-c2ccc(OCC(C)C)c(C#N)c2)sc1C(=O)NCc1ccc(NC(=O)CCCCCCC(=O)Nc2ccccc2N)cc1 | 1580 nM | 9.36 µM | > 2000 nM | 5.55 µM | – | – | – | – |
| Cc1nc(-c2ccc(OCC(C)C)c(C#N)c2)sc1C(=O)NCc1ccc(C(=O)NO)cc1 | 805 nM | 11.4 µM | 21 nM | 4.09 µM | – | – | – | – |

The next lines start with results.

| IC50 (HL-60 [1]) | IC50 (NCI-H1975) | IC50 [2] | IC50 (MDA-MB-231) | SMILES | Activity (Rattus norvegicus [3]) | Activity (Rattus norvegicus [4]) | Activity (Rattus norvegicus [5]) | Activity (HL-60 [6]) |
| --- | --- | --- | --- | --- | --- | --- | --- | --- |
| 10600 nM | > 50 µM | 3.3 nM | > 50 µM | Cc1nc(-c2ccc(OCC(C)C)c(C#N)c2)sc1C(=O)NO | – | – | – | – |
| 1540 nM | > 50 µM | 850 nM | 41.1 µM | Cc1nc(-c2ccc(OCC(C)C)c(C#N)c2)sc1C(=O)NCCCCCCC(=O)Nc1ccccc1N | – | – | – | – |
| 1290 nM | 6.77 µM | 6.2 nM | 6.35 µM | Cc1nc(-c2ccc(OCC(C)C)c(C#N)c2)sc1C(=O)NCCCCCC(=O)NO | – | – | – | – |
| 1710 nM | 18.2 µM | 700 nM | 7.08 µM | Cc1nc(-c2ccc(OCC(C)C)c(C#N)c2)sc1C(=O)NCCCCCC(=O)Nc1ccccc1N | – | – | – | – |
| 3420 nM | 12.6 µM | > 2000 nM | 12.4 µM | Cc1nc(-c2ccc(OCC(C)C)c(C#N)c2)sc1C(=O)NCc1ccc(NC(=O)CCCCCCC(=O)NO)cc1 | – | – | – | – |
| 560 nM | > 50 µM | > 2000 nM | 9.9 µM | Cc1nc(-c2ccc(OCC(C)C)c(C#N)c2)sc1C(=O)NCc1ccc(C(=O)NCCCCCCC(=O)NO)cc1 | – | – | – | – |
| 18000 nM | > 50 µM | > 2000 nM | > 50 µM | Cc1nc(-c2ccc(OCC(C)C)c(C#N)c2)sc1C(=O)NCc1ccc(NC(=O)CCCCCC(=O)NO)cc1 | – | – | – | – |
| > 50000 nM | 18.7 µM | > 2000 nM | 31.5 µM | Cc1nc(-c2ccc(OCC(C)C)c(C#N)c2)sc1C(=O)NCc1ccc(NC(=O)CCCCCCCC(=O)NO)cc1 | – | – | – | – |
